# Laboratory results: paper PMC11172314, “Towards Enhanced Tunability of Aqueous Biphasic Systems: Furthering the Grasp of Fluorinated Ionic Liquids in the Purification of Proteins” (International Journal of Molecular Sciences, 2024)
# Read-outs that look alike come from different tables or passages of the source.
# Legend:
# [1] = molecular target: T1, lysozyme (Lys) (Gallus gallus, UniProt P00698); set-up: method as in PMID 28478279, PMID 17406547; settings: cited from earlier work
# T1 construct: Lyophilized lysozyme from chicken egg white, ≥90% purity; purchased Millipore (Darmstadt, Germany); host or cells: chicken egg white (natural source)
# T1 sequence (P00698 19-147): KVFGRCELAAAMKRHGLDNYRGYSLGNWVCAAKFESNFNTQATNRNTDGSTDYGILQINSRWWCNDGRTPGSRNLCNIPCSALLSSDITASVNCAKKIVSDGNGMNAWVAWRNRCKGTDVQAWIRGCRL
# [2] = molecular target: T1, lysozyme (Lys); experiment: Far-UV CD secondary structure content of lysozyme (K2D deconvolution); set-up: species or system chicken; Lys α-helix content / Lys β-sheet content / Lys random coil content / α-helix content / β-sheet content / Random coil content: unit not given here; settings: 25 °C; for Lys random coil content / Lys α-helix content / Lys β-sheet content: 1.0 mg/ml Lys
# Experimental: Circular dichroism (CD) spectroscopy is broadly applied to assess the secondary structure of proteins because different structural elements have characteristic CD spectra. […] For [C4C1Im][CF3SO3] (mere fluoro-containing IL), the structural content was estimated for the concentration range (0.1–200 mM). […] FIL and [ N1112(OH) ][H2PO4] […] No substantial protein structural modification upon the ABS phase-forming component addition was verified.
# Circular dichroism (CD) spectra were collected in a 10 mm quartz cuvette and a Chirascan spectropolarimeter (Applied Photophysics, Leatherhead, UK) at room temperature. All CD spectra were recorded in far-UV 190 to 260 nm at scan rates of 50 nm/min, 4 accumulations, and a response time of 3 s. Each CD experiment involved the acquisition and combination of two distinct duplicates. […] Spectral deconvolution was carried out with Dichroweb using the K2D algorithm.
# [3] = molecular target: T1, lysozyme (Lys); experiment: DSC thermal stability (Tm, ΔH) of lysozyme in water, component solutions and ABS phases; set-up: species or system chicken; settings: for Lys Tm / Lys ∆H: 1.0 mg/mL Lys
# Excerpt: Differential scanning calorimetry (DSC) measurements (Section 3) were used to determine the melting temperature ( Tm ) and enthalpy ( Δ H) of lysozyme, at which both the folded and unfolded states coexist at equilibrium. DSC outputs, thermal transitions at the nanoscale level, allow to analyze alterations on proteins structure and stability, providing sharp perceptions of the factors affecting stability, as well as of the folding and unfolding processes. […] (DSC curve depicted in Figure S16 of Supplementary Materials).
# FIL (BP#8, BP#10, BP#11, and BP#12). […] For the system based on [C4C1Im][CF3SO3]
# The thermal stability of lysozyme was analyzed in water, ABS phase-forming compounds aqueous solutions, and partition ABS phases. […] Partition lysozyme on each phase from the prepared biphasic points as well as recovered protein from the FIL-rich phase were also addressed for a selection of studied systems listed in Table 1. We acquired thermograms using a TA^TM Nano DSC from TA Instruments. All scans were conducted in a 300 μ L capillary cell through a temperature ramp from 20 to 90 °C at a heating rate of 1 °C/min and 3 atm pressure. All samples were degassed for 7 min at 20 °C, with the exception of FIL-containing samples owing to their surfactant properties. After subtracting the polynomial fit baselines, raw thermogram curve data were fitted with the TwoStateScaled model using NanoAnalyze TA Instruments software, version 3.12, to determine the protein thermal transition temperatures in each sample. During nanoDSC scans, Δ H and Δ S were obtained and utilized to determine Δ G ( Δ G = Δ H − T Δ S).
# [4] = cited from earlier work
# [5] = molecular target: T2, FITC-Lys (lysozyme) (Gallus gallus, UniProt P00698); experiment: Microscale thermophoresis (MST) binding of ABS phase-forming components to FITC-labeled lysozyme; set-up: species or system chicken; settings: FITC-Lys 0.41 μM, 25 °C
# T2 construct: Lyophilized lysozyme from chicken egg white, ≥90% purity; purchased Millipore (Darmstadt, Germany); host or cells: chicken egg white (natural source)
# T2 sequence (P00698 19-147): as above
# Experimental: Usually, in the labeling process, the position of dye is statistically distributed, and one amine per protein is labeled. […] The four ABS phase-forming components, [ N1112(OH) ][H2PO4] […] (FILs), and [C4C1Im][CF3SO3] […] In each run of MST, a maximum concentration of ligand was selected and consecutively diluted in sixteen capillaries.
# Binding studies were conducted through microscale thermophoresis measurements of dye-labeled lysozyme. […] MST tests were conducted in a monolith NT.115 (blue/red) in accordance with the Nano Temper Technologies methodology. Medium MST power and 20% LED power (nano-blue) were set as the instrument’s default settings. For each and every MST measurement, PBS buffer was used. […] For each ligand, a series of 16 1:1 dilutions was prepared using the same buffer, varying the starting ligand concentration from 15 to 400 mM. MST traces were recorded using the standard parameters: 5 s MST power off, 30 s MST power on, and 5 s MST power off. Three independently conducted pipetted experiments’ data were examined using NanoTemper Technologies’ MO. Affinity Analysis program, version 2.3.
# [6] = molecular target: T1, lysozyme (Lys); experiment: Intrinsic (tryptophan) fluorescence of lysozyme; set-up: species or system chicken; settings: 0.2 mg/mL Lys, excitation 295 nm, component 0.1–800 mM, 25 °C
# Excerpt: (FIL), [C4C1Im][CF3SO3] (mere fluoro-containing IL), and [ N1112(OH) ][H2PO4] (globular protein stabilizer). […] Even though large changes in protein conformation can modify the intensity of tyrosine and phenylalanine fluorescence signals, their low extinction coefficients and quantum yields, as well as their relative lower sensitivity to environmental changes, make them a less appealing candidate. Tryptophan is frequently found concealed in the hydrophobic core of proteins due to its aromatic nature. […] The tryptophan release energy is particularly sensitive to the polarity (and dynamics) of the environment because the excited-state dipole moment is quite large. Reactions to denaturation, substrate binding, subunit association, and conformational transitions create variations in the tryptophan emission spectra. The spectrum shift generally known as blue shift, a shift of the maximum emission towards smaller wavelengths, denotes that the aromatic residue is buried in the native structure of the protein [67]. […] Furthermore, the amount of exposure of the fluorophores to the solvent is associated with the increase or decrease in the intensity of the emission spectrum. […] [C4C1Im][CF3SO3] and [ N1112(OH) ][H2PO4] […] Variations in lysozyme spectra are caused by ligand-induced changes in the microenvironment of tryptophan residues, either by shifting the maximum peak wavelength (blue or red shift) or by altering peak intensities. These changes can be used as a measure of the effect of the ABS phase-forming components on protein folding and unfolding.
# Intrinsic fluorescence spectroscopy measurements of lysozyme’s tryptophan residues were carried out on a Spex Horiba Jobyin Yvon spectrofluorometer (HORIBA Jobin Yvon, France) using a 10 mm path length quartz cuvette. […] The excitation and emission slit widths of 2 nm were used for all the measurements. Maximum fluorescence values were attained as the average of three measurements.
# [7] = set-up: method as in earlier work; settings: aqueous solution, 25 °C, conductometry; ref 21 (supplement ref 1); cited from earlier work
# [8] = max. conc. (first capillary) in monomer range: below 1st CAC for FILs, ]0, 100] mM for non-aggregating ligands
Compound,"Kd [5, 8]",Lys random coil content ([2]; 0.1 mM component),Lys α-helix content ([2]; 0.1 mM component),Lys β-sheet content ([2]; 0.1 mM component),Lys random coil content ([2]; 1 mM component),Lys α-helix content ([2]; 1 mM component),Lys β-sheet content ([2]; 1 mM component),Lys random coil content ([2]; 5 mM component),Lys α-helix content ([2]; 5 mM component),Lys β-sheet content ([2]; 5 mM component),Lys random coil content ([2]; 25 mM component),Lys α-helix content ([2]; 25 mM component),Lys β-sheet content ([2]; 25 mM component),Lys Tm ([3]; 0.1 mM component in water) [°C],Lys ∆H ([3]; 0.1 mM component in water) [kcal/mol],Lys Tm ([3]; 1 mM component in water) [°C],Lys ∆H ([3]; 1 mM component in water) [kcal/mol],Lys Tm ([3]; 5 mM component in water) [°C],Lys ∆H ([3]; 5 mM component in water) [kcal/mol],Lys Tm ([3]; 10 mM component in water) [°C],also measured
"Lys: lysozyme from chicken egg white (muramidase, EC 3.2.1.17), 14 kDa globular protein used as protein model",–,–,–,–,–,–,–,–,–,–,–,–,–,–,–,–,–,–,–,–,"β-strand, analysis based on various methods [1]: ≈ 19%; α-helix, secondary structure prediction ([2]; 1.0 mg/mL Lys in water): 29%; β-strand, secondary structure prediction ([2]; 1.0 mg/mL Lys in water): 14%; Random coil content ([2]; 1.0 mg/ml Lys in water (0 mM)): 0.57; α-helix content ([2]; 1.0 mg/ml Lys in water (0 mM)): 0.29; β-sheet content ([2]; 1.0 mg/ml Lys in water (0 mM)): 0.14; Tm ([3]; 0.5 mg/ml Lys in water): 69.26±0.031 °C; ∆H ([3]; 1.0 mg/mL Lys in water): 118 kcal/mol; Tm ([3]; 3.0 mg/ml Lys in water): 73.85±0.005 °C; isoelectric point [4]: around 11.0"
O=S(=O)(O)C(F)(F)C(F)(F)C(F)(F)C(F)(F)F [[N1112(OH) ][C4F9SO3]],–,–,–,–,–,–,–,–,–,–,–,–,–,–,–,–,–,–,–,–,"Kd ([5]; max. conc. (first capillary) in 1st CAC range ([14.4, 34.48[ or [16.02, 35.17[ mM), read-out: Kd): 6.05 ± 1.67 mM; Kd ([5]; max. conc. (first capillary) in 2nd CAC range ([34.48, 76.54[ or [35.17, 185.65[ mM), read-out: Kd): 6.25 ± 1.47 mM"
"C[N+](C)(C)CCO.C[N+](C)(C)CCO.O=P([O-])(O)O.O=P([O-])(O)O [[N1112(OH) ][H2PO4], Choline ((2-hydroxyethyl)trimethylammonium) dihydrogen phosphate]",no binding detected,0.56,0.29,0.15,0.58,0.28,0.14,0.56,0.25,0.18,0.57,0.24,0.2,77.10,134.8,77.11,132.5,76.70,142.8,77.06,Lys fluorescence emission intensity with increasing component concentration [6]: reduction in fluorescence emission intensity; Lys maximum emission wavelength with increasing component concentration [6]: remains constant; Lys ∆H ([3]; 10 mM component in water): 137.8 kcal/mol
C[N+](C)(C)CCO.O=S(=O)([O-])C(F)(F)C(F)(F)C(F)(F)C(F)(F)F [[N1112(OH) ][C4F9SO3]],no binding detected,0.57,0.28,0.15,0.58,0.28,0.14,0.56,0.25,0.19,0.57,0.24,0.2,77.15,136.3,76.65,127.7,75.19,123,74.28,"1st CAC [7]: 16.02 mM; 2nd CAC [7]: 35.17 mM; 3rd CAC [7]: 185.65 mM; Lys ∆H ([3]; 10 mM component in water): 134 kcal/mol; Lys Tm ([3]; 25 mM component in water, several transitions listed singly, listed as [N1112(OH)][C4F9SO3]): 83.98 °C"
